Test results from patent publication US11858958B2, “Blank liposome with ginsenoside Rg3 or its analog as membrane materials and preparations and uses thereof” (Shanghai Ginsome Pharmatech Co., Ltd., priority 2018, dated 2024).

How the values were obtained:
rat C6 glioma cells [1] = assay: In vitro drug efficiency assay, survival rate of glioma cells; format: cell-based; conditions: rat, 72 h
[2] = system: human breast cancer cell line (4T1); assay: In vitro drug efficacy assay, cell survival rate (Rh2/PTX groups)
Description: Logarithmically growing tumor cells were collected and resuspended in DMEM complete medium supplemented with 10% fetal bovine serum, 100 U/ml penicillin and 100 μg/ml streptomycin to a final cell density of 4×10^4 cells/ml. Then, 200 μl cell suspension solution was seeded into each well of a 96-well plate (with a concentration of 8×10^3 cells/well) and the plate was cultured in a CO2 cell culture incubator at 37° C. […] The group without replacing DMEM complete medium by anti-cancer drug solution was used as negative control. For each concentration group, 4 replicates were set up. The whole experiment was independently repeated 3 times. The cells were continuously cultured in a CO2 cell culture incubator at 37° C. […] Then discarded the supernatant, added 150 μl DMSO into each well, and shaked the plate for 10 min. The absorbance was measured at 490 nm using a microplate reader (Tecan infinite M 200 TECAN, Switzerland). The cell survival rate is calculated according to the following formula:

[3] = system: human gastric cancer cells (BGC-823); assay: In vitro cell viability assay; format: cell-based; set-up: unit not given here
Text: (§1) For each concentration group, 4 replicates were set up. The whole experiment was independently repeated 3 times.

[4] = system: in-situ glioma model (C6 cells); assay: Survival curve and median survival day; format: in vivo, nude mice
rat C6 glioma cells [5] = assay: In vitro drug efficiency assay, survival rate of glioma cells; format: cell-based; conditions: 72 h
Text: as §1
The survival rate of rat glioma C6 cells with addition of Rg3 group, Rg3-blank group, PTX group, PTX+Rg3 group, PTX-Cho-Lipo group and PTX-Rg3-Gipo group at various concentrations respectively are listed in Table 11 and FIG. 12.

**Q.** What does the source list for CC(=O)O[C@H]1C(=O)[C@@]2(C)[C@H]([C@H](OC(=O)c3ccccc3)[C@]3(O)C[C@H](OC(=O)[C@H](O)[C@@H](NC(=O)c4ccccc4)c4ccccc4)C(C)=C1C3(C)C)[C@]1(OC(C)=O)CO[C@@H]1C[C@@H]2O [PTX, paclitaxel]?
**A.** Cell Viability (rat C6 glioma cells [1]; 0.0005 μg/ml): 100; Cell Viability (rat C6 glioma cells [1]; 0.0015 μg/ml): 79.49; Cell Viability (rat C6 glioma cells [1]; 0.0137 μg/ml): 65.36; Cell Viability (rat C6 glioma cells [1]; 10 μg/ml): 39.59; Cell Viability ([2]; 4T1, C 0.00091 μM): 106.72; Cell Viability ([2]; 4T1, C 0.00274 μM): 94.70; Cell Viability ([2]; 4T1, C 0.00823 μM): 59.19; Cell Viability ([2]; 4T1, C 0.02469 μM): 55.83; Cell Viability ([2]; 4T1, C 0.07407 μM): 49.25; Cell Viability ([2]; 4T1, C 0.22222 μM): 48.48; Cell Viability ([2]; 4T1, C 0.66667 μM): 48.54; Cell Viability ([2]; 4T1, C 2.00000 μM): 52.00; Cell Viability ([3]; listed as 1 of 9, PTX series C 0.0027-6 μg/mL ascending (8 levels)): 91.9; Cell Viability ([3]; listed as 2 of 9, PTX series C 0.0027-6 μg/mL ascending (8 levels)): 80.5; Cell Viability ([3]; listed as 3 of 9, PTX series C 0.0027-6 μg/mL ascending (8 levels)): 60.9; Cell Viability ([3]; listed as 4 of 9, PTX series C 0.0027-6 μg/mL ascending (8 levels)): 50.3; Cell Viability ([3]; listed as 5 of 9, PTX series C 0.0027-6 μg/mL ascending (8 levels)): 41.6; Cell Viability ([3]; listed as 6 of 9, PTX series C 0.0027-6 μg/mL ascending (8 levels)): 42.7; Cell Viability ([3]; listed as 7 of 9, PTX series C 0.0027-6 μg/mL ascending (8 levels)): 38.0; Cell Viability ([3]; listed as 8 of 9, PTX series C 0.0027-6 μg/mL ascending (8 levels)): 33.2; Cell Viability ([3]; listed as 9 of 9, PTX series C 0.0027-6 μg/mL ascending (8 levels)): 32.2; Median survial ([4]; tail vein 10 mg·kg^−1): 27 days; number of survived mice ([4]; tail vein 10 mg·kg^−1, Time 12 d): 10; number of survived mice ([4]; tail vein 10 mg·kg^−1, Time 14 d): 10; number of survived mice ([4]; tail vein 10 mg·kg^−1, Time 16 d): 9; number of survived mice ([4]; tail vein 10 mg·kg^−1, Time 18 d): 8; number of survived mice ([4]; tail vein 10 mg·kg^−1, Time 20 d): 7; number of survived mice ([4]; tail vein 10 mg·kg^−1, Time 22 d): 6; number of survived mice ([4]; tail vein 10 mg·kg^−1, Time 24 d): 6; number of survived mice ([4]; tail vein 10 mg·kg^−1, Time 26 d): 5; number of survived mice ([4]; tail vein 10 mg·kg^−1, Time 28 d): 4; number of survived mice ([4]; tail vein 10 mg·kg^−1, Time 30 d): 4; number of survived mice ([4]; tail vein 10 mg·kg^−1, Time 32 d): 4; number of survived mice ([4]; tail vein 10 mg·kg^−1, Time 34 d): 3; number of survived mice ([4]; tail vein 10 mg·kg^−1, Time 36 d): 1; number of survived mice ([4]; tail vein 10 mg·kg^−1, Time 38 d): 1; number of survived mice ([4]; tail vein 10 mg·kg^−1, Time 40 d): 0; number of survived mice ([4]; tail vein 10 mg·kg^−1, Time 42 d): 0; number of survived mice ([4]; tail vein 10 mg·kg^−1, Time 44 d): 0; number of survived mice ([4]; tail vein 10 mg·kg^−1, Time 46 d): 0; number of survived mice ([4]; tail vein 10 mg·kg^−1, Time 48 d): 0; number of survived mice ([4]; tail vein 10 mg·kg^−1, Time 50 d): 0; number of survived mice ([4]; tail vein 10 mg·kg^−1, Time 52 d): 0; number of survived mice ([4]; tail vein 10 mg·kg^−1, Time 54 d): 0; number of survived mice ([4]; tail vein 10 mg·kg^−1, Time 56 d): 0; number of survived mice ([4]; tail vein 10 mg·kg^−1, Time 58 d): 0; number of survived mice ([4]; tail vein 10 mg·kg^−1, Time 60 d): 0; number of survived mice ([4]; tail vein 10 mg·kg^−1, Time 62 d): 0; Cell Viability (rat C6 glioma cells [5]; 0.0046 μg/ml): 73.2867; Cell Viability (rat C6 glioma cells [5]; 0.0412 μg/ml): 60.49; Cell Viability (rat C6 glioma cells [5]; 0.1235 μg/ml): 49.91; Cell Viability (rat C6 glioma cells [5]; 0.37 μg/ml): 45.98; Cell Viability (rat C6 glioma cells [5]; 1.111 μg/ml): 43.89; Cell Viability (rat C6 glioma cells [5]; 3.333 μg/ml): 43.21
